Literature values, collected in patent US11266683B2, “Antimicrobial and cleansing composition consisting of a polymeric biguanide and EDTA” (priority 2016, dated 2022).
Like-named read-outs stand apart in the source and are kept apart here.

How the values were obtained:
[1] = tested on: fibroblasts
[2] = tested on: S. aureus

For `[H]/N=C(\N/C(=N/[H])NCCCCCCNC(=N)NC(=N)Nc1ccc(Cl)cc1)Nc1ccc(Cl)cc1` [chlorhexidine], the effect on fibroblasts ([1]; at higher concentration) is given as “causes necrosis” and the effect on fibroblasts ([1]; at lower concentration) is given as “induces apoptosis”.
For polyhexamethylene biguanide [PHMB], the “risk of the bacterium developing resistance” value [2] is given as “very low”.
